Measured values: patent publication EP0496162A2, “Peptide inhibitors of RAS-GAP interaction” (MERCK & CO. INC., priority 1990, dated 1992)
Non-standard residues stand in square brackets, D forms with d. Residues, ends and D or L forms follow the SMILES beside them. No end group written: not given here.

Assays:
Ras-GAP interaction = target: T1, Ras-GAP interaction (Bos taurus, UniProt P09851); assay: Ras-GAP interaction inhibition assay (GAP-stimulated Ras GTPase, charcoal adsorption); assay type: biochemical, bovine; settings: concentration of peptide required to reduce GAP stimulated Ras-GTP hydrolysis by 50%; 10 fmol GAP, 240 fmol Ha ras p21-GTP, 4 minutes at 24°C
T1 construct: made in house; host or cells: GAP: E. coli JM109 (plasmid pYO); Ha-Ras: E. coli RRllaci^q (plasmid pRas[Gly12 Ala59])
T1 sequence (P09851 1-1044): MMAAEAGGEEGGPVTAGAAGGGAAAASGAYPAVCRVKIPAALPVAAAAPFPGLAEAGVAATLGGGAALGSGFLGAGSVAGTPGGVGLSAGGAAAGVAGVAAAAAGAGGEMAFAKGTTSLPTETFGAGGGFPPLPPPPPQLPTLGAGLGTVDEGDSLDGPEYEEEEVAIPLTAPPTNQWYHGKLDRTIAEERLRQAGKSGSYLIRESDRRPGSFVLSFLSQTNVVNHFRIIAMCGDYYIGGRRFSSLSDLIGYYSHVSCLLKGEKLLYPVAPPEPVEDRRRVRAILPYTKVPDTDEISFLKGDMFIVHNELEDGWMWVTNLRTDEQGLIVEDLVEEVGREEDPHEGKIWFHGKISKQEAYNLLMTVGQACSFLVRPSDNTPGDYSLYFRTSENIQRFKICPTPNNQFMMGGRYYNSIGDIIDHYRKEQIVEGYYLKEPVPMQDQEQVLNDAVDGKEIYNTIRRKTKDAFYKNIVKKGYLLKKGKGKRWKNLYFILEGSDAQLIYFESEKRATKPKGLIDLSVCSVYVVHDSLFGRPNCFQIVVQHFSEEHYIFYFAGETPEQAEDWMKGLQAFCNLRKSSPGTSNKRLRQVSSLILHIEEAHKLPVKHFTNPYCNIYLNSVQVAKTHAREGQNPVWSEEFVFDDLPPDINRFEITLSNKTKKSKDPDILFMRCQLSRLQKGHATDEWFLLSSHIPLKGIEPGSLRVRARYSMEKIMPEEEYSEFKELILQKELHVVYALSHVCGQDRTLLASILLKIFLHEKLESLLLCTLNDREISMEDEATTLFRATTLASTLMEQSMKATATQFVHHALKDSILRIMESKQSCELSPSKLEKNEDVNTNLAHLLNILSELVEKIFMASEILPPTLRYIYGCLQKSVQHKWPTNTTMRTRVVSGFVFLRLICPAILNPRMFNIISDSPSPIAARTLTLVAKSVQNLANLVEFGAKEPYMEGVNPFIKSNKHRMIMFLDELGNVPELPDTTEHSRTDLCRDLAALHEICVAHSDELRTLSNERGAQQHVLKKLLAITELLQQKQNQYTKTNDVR
Experimental: The activity of the synthetic peptides of the present invention, as inhibitors of the interaction of ras with GAP was determined in an assay which measures GAP dependent, Ras GTPase activity. Bovine GAP was either purified from fresh bovine brains or recombinantly produced in E. coli. It is understood that the methods of the present invention may utilize either the recombinant full length GAP or the bovine brain derived GAP. In addition, GAP from other species, such as human and mouse, may be substituted for bovine GAP since they share about 95% amino acid homology. Truncated recombinant forms of GAP are also suitable for use in the Ras-GAP interaction assay [Marshall, M.S., et al., (1989), EMBO J., 8, pp1105-1110]. However, for the screening of synthetic peptides for their ability to block the Ras-GAP interaction, the recombinant, full length GAP is preferred.
The Ras protein utilized in the Ras-GAP GTPase assay of the present invention is Harvey ras (Ha-ras). It is understood that other forms of Ras protein are suitable for use in the present invention. Other suitable forms of Ras protein include, but are not limited to, Kirsten Ras, yeast S. cerevisiae RAS, and N-Ras. Furthermore, it is readily apparent to those skilled in the art that any form of Ras protein which is capable of interacting with GAP is suitable for use in the Ras-GAP GTPase assay.
Ras GTPase activity was measured by the charcoal adsorption procedure. Each 50 µL reaction contained 10 fmol purified GAP, 240 fmol Ha ras p21-[γ ³²P] GTP and 1 mg/mL BSA in buffer D. Varying amounts of the competing peptides were added as indicated. Prewarmed reactions (24°C) were initiated by the addition of GAP, then incubated for 4 minutes at 24°C. The reactions were terminated by the addition of 5 volumes of ice cold 5% activated charcoal (Sigma: HCl washed) in 50 mM NaH₂PO₄. GTPase activity was quantitated by measuring the free ³²P-orthophosphate in the cleared supernatant after centrifugation of the charcoal mix. GAP-stimulated Ras GTPase activity in the absence of competitors was 40-60 fmol Ras-GTP hydrolyzed; the 100% control value. In the absence of GAP, GTP hydrolysis was not detectable during the incubation period of the assay. Inhibitors of this assay block GAP-stimulated Ras GTPase without impairing intrinsic Ras GTPase, assayed in the absence of GAP following incubation at 24°C for one hour.
(§1) Ras peptides were dissolved in either 100% dimethyl formamide (DMF, American Burdick and Jackson) or 100% dimethyl sulfoxide (DMSO, Fluka UV-spectroscopy grade) at a calculated peptide concentration of 1-4 mM. Following 1 minute in a Sonicor SC-200 bath sonicator at room temperature, the peptide solutions were vortexed, and then centrifuged for 5 minutes at room temperature in an Eppendorf microfuge to remove any undissolved material. 20 µL of the cleared peptide solutions were then added to 80 µL of Buffer D in a dilution series covering a range of peptide concentrations from 0.02 µM up to the maximum solubility limit for each peptide. In each dilution, the solvent concentration was maintained at 20%. These peptides solutions were then centrifuged for 5 minutes at room temperature at 10,000 x g, and the cleared supernatants were divided into 2 parts. One part of each cleared peptide dilution was used in a GAP competition assay: 40 µL was added to a 5 µL solution containing 0.1 mg/mL BSA plus 240 fmol Ha-ras p21-[γ-³²P]GTP. Reactions were initiated upon addition of 5 µL of diluted GAP (10 fmol), and analyzed as described above.

[1] = assay type: physicochemical
Experimental: as §1
The other portion of the cleared peptide solution was measured spectrophotometrically to determine solubility and concentration of the peptides. Extinction coefficients were determined by measuring the absorbance at 277 nm of 2 peptides whose exact concentrations were quantitated by amino acid analysis. The extinction coefficients for peptide Ras 17-37 dissolved in buffer D/20% DMF or peptide Ras 91-103 (SEQ ID NO:14)dissolved in water/20% DMSO, were 2580 cm⁻¹M⁻¹ and 2230 cm⁻¹ M⁻¹, respectively. These values were used to determine the exact concentration for each peptide used at each point in the competition assay. In addition, peptide solubility was confirmed by comparing the light scattering at 600 nm for each peptide solution measured before and after centrifugation. Only concentrations reflecting 100% solubility were used in the dose response curves, and the maximum concentration used for each peptide competitor indicates the limit of solubility for that peptide.

[2] = target: T2, S. cerevisiae adenylyl cyclase (Ras Dependent, strain FlD reconstituted with purified Ras) (Saccharomyces cerevisiae, UniProt P08678); assay: Yeast adenylyl cyclase assay, reconstitution of FlD membranes with purified Ras protein; assay type: biochemical; settings: part B, FlD membranes with 5 µM purified Ras protein, peptide 10 µM
T2 construct: Since these membranes contain adenylyl cyclase, but are lacking Ras protein; endogenous in cells; host or cells: membranes of S. cerevisiae strain FlD
Excerpt: Another Ras-dependent enzymatic assay was used to extend the observed ability of the peptides of the present invention to inhibit Ras function. This system, yeast adenylyl cyclase assay, measures the Ras-dependent conversion of ATP into cyclic AMP (cAMP). […] Furthermore, in S. cerevisiae, regulation of cAMP metabolism appears to be a major function of Ras. This assay system was used to extend the observed Ras inhibitory activity of the peptides of the present invention, to a Ras function which is GAP-unrelated. S. cerevisiae strain FlD lacks functional Ras proteins, however FlD cells have functional adenylyl cyclase in their cell membrane. […] Similarly, a recombinant S. cerevisiae strain MY1186, lacks yeast Ras proteins but expresses mammalian Ras protein which functions with adenylyl cyclase to regulate cAMP metabolisim in the yeast cells. […] In contrast, S. cerevisiae strain JC377-10B contains a mutant form of adenylyl cyclase which constitutively converts ATP into cAMP with or without Ras.
Ras peptides were tested at the indicated concentrations for inhibition of S. cerevisiae adenylyl cyclase activity. […] Ras-independent activity was assayed with membranes from strain JC377-10B (ras-minus, constitutively active adenylyl cyclase).
Yeast strain FlD, MY1186 and JC377-10B, were grown in YEHD medium at 30°C. Membrane fractions were prepared from cultures grown to an A₆₆₀ of 0.5 to 1.0 by glusulase digestion [Casperson, G.F. et al., (1983), J. Biol. Chem., 258, pp. 7911-7914], Dounce homogenization of the spheroplasts in buffer containing 50 mM sodium MES [2(N-morpholino) ethanesulfonic acid] […] Adenylyl cyclase assays (100-µL reaction volume) measured the conversion of [α-³²P]ATP to [³²P]cAMP at 30°C, using 50 µg to 100 µg of membrane protein in assays using membranes from yeast strains MY1186 and JC377-10B.. […] Since these membranes contain adenylyl cyclase, but are lacking Ras protein, stimulation of adenylyl cyclase activity may be measured following reconstitution with purified Ras complexed with GTP. […]

T2 sequence (P08678 whole entry): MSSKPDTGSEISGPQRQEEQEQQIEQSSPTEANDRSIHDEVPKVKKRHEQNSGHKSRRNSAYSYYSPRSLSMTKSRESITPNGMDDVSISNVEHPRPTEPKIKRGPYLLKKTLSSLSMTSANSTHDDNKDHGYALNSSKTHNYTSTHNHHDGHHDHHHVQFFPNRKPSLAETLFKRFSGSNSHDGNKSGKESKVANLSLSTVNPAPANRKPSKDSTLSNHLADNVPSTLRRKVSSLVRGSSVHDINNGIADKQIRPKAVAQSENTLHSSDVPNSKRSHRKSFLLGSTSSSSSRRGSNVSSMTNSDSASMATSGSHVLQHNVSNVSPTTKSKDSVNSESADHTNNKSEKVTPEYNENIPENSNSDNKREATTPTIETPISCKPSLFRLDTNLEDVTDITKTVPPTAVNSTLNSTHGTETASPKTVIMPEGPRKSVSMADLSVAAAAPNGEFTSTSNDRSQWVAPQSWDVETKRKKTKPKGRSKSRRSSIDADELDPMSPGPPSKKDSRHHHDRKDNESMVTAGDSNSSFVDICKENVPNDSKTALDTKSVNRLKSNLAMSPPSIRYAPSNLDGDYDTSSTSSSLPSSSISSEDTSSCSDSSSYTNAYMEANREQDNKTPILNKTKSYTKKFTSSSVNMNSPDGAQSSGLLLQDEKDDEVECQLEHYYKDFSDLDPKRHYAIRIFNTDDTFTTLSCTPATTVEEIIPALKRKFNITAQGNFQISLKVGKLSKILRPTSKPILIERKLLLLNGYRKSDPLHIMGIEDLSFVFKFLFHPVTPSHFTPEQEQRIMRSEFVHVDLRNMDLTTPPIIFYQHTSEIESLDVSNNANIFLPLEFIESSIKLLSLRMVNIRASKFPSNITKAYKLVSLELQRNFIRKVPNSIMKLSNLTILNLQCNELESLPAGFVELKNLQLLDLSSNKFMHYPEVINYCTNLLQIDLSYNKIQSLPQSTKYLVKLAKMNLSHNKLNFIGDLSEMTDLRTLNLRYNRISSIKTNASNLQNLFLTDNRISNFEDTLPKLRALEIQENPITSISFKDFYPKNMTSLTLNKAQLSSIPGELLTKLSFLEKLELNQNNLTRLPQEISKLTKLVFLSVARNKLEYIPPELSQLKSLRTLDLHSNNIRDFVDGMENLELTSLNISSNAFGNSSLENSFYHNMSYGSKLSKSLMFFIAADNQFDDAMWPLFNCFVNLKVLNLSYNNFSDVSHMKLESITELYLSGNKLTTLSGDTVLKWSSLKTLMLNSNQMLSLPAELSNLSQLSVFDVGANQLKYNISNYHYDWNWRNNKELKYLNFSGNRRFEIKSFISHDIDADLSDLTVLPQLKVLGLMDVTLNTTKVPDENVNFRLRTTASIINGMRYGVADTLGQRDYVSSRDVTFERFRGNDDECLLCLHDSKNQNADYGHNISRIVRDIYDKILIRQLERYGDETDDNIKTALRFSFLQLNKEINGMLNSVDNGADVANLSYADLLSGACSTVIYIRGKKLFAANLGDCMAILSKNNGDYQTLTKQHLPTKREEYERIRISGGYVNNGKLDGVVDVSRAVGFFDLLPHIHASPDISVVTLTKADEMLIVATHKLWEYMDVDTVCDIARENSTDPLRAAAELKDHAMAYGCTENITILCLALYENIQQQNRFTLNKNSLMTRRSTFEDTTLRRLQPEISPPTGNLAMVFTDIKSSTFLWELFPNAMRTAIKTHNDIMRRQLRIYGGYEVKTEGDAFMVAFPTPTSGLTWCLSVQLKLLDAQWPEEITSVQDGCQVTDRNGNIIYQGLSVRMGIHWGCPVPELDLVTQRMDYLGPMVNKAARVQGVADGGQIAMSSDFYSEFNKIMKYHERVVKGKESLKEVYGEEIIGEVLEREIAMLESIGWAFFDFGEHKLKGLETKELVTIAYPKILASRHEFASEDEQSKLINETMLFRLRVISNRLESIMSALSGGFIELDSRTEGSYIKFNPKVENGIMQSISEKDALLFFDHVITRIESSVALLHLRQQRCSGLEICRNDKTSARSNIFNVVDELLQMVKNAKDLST

In the case of CC[C@H](C)[C@H](NC(=O)[C@H](CC(C)C)NC(=O)[C@H](CCC(N)=O)NC(=O)[C@@H](NC(=O)[C@@H](NC(=O)[C@H](CC(C)C)NC(=O)[C@H](C)NC(=O)[C@@H](N)CO)[C@@H](C)O)[C@@H](C)CC)C(=O)N[C@@H](CCC(N)=O)C(=O)N[C@@H](CC(N)=O)C(=O)O [Ras 17-26], the “IC50*” value (Ras-GAP interaction) is reported as “no inhibition” and the “Maximum Solubility” value [1] is reported as 600 µM.
With CC[C@H](C)[C@H](NC(=O)[C@H](CC(C)C)NC(=O)[C@H](CCC(N)=O)NC(=O)[C@@H](NC(=O)[C@@H](NC(=O)[C@H](CC(C)C)NC(=O)[C@H](C)NC(=O)[C@@H](N)CO)[C@@H](C)O)[C@@H](C)CC)C(=O)N[C@@H](CCC(N)=O)C(=O)N[C@@H](CC(N)=O)C(=O)N[C@@H](Cc1c[nH]cn1)C(=O)N[C@@H](Cc1ccccc1)C(=O)N[C@H](C(=O)N[C@@H](CC(=O)O)C(=O)N[C@@H](CCC(=O)O)C(=O)N[C@@H](Cc1ccc(O)cc1)C(=O)N[C@@H](CC(=O)O)C(=O)N1CCC[C@H]1C(=O)N[C@H](C(=O)N[C@H](C(=O)N[C@@H](CCC(=O)O)C(=O)N[C@@H](CC(=O)O)C(=O)N[C@@H](CO)C(=O)N[C@@H](Cc1ccc(O)cc1)C(=O)N[C@@H](CCCNC(=N)N)C(=O)N[C@@H](CCCCN)C(=O)N[C@@H](CCC(N)=O)C(=O)N[C@H](C(=O)O)C(C)C)[C@@H](C)CC)[C@@H](C)O)C(C)C [Ras 17-44] the IC50 (Ras-GAP interaction) was 2.4 µM and the “Maximum Solubility” value [1] was 200 µM.
In the case of CC[C@H](C)[C@H](NC(=O)[C@H](CC(C)C)NC(=O)[C@H](CCC(N)=O)NC(=O)[C@@H](NC(=O)[C@@H](NC(=O)[C@@H](N)CC(C)C)[C@@H](C)O)[C@@H](C)CC)C(=O)N[C@@H](CCC(N)=O)C(=O)N[C@H](CC(N)=O)C(=O)N[C@@H](Cc1c[nH]cn1)C(=O)N[C@@H](Cc1ccccc1)C(=O)N[C@H](C(=O)N[C@@H](CC(=O)O)C(=O)N[C@@H](CCC(=O)O)C(=O)N[C@@H](Cc1ccc(O)cc1)C(=O)O)C(C)C [Ras 19-32(D-Asn)] (H-LTIQLIQ[dN]HFVDEY-OH), the IC50 (Ras-GAP interaction) is reported as 0.2 µM and the “Maximum Solubility” value [1] is reported as 12 µM.
For N[C@@H](CC(=O)O)C(=O)N[C@@H](CCC(=O)O)C(=O)N[C@@H](Cc1ccc(O)cc1)C(=O)O [Ras 30-32] (H-Asp-Glu-Tyr-OH), the “IC50*” value (Ras-GAP interaction) was “no inhibition” and the “Maximum Solubility” value [1] was 800 µM.
With EELTIQLIQNHFVDEYD-NH2 [Ras 19-33(3)] the IC50 (Ras-GAP interaction) was 50 µM and the “Maximum Solubility” value [1] was 225 µM.
With EYDPTIEDSYRKQ [Ras 31-43] the “IC50*” value (Ras-GAP interaction) was “no inhibition” and the “Maximum Solubility” value [1] was 446 µM.
With “GQEEYSAMRDQYMRTGE [Ras 60-76, reference compound]” the “%Inhibition of Adenylyl Cyclase Activity Ras Dependent” value [2] was 6 ± 1%.
In the case of IQLIQNHFVDEY [Ras 21-32], the IC50 (Ras-GAP interaction) is reported as 70 µM and the “Maximum Solubility” value [1] is reported as 120 µM.
In the case of LTIQIQNHFVDE [Ras 19-31(1)], the IC50 (Ras-GAP interaction) is reported as 36 µM and the “Maximum Solubility” value [1] is reported as over 1000 µM.
For LTIQLIQNHFVDE [Ras 19-31], the IC50 (Ras-GAP interaction) was 48 µM and the “Maximum Solubility” value [1] was over 1000 µM.
For LTIQLIQNHFVDEY [Ras 19-32], the IC50 (Ras-GAP interaction) was 0.4 µM and the “Maximum Solubility” value [1] was 48 µM.
For LTIQLIQNHFVDEYD [Ras 19-33], the IC50 (Ras-GAP interaction) was 1.4 µM and the “Maximum Solubility” value [1] was 23 µM.
For “MRTRVVSGFVFLRLIGPAILNPR [GAP 888-910(Gly903)]”, the “Maximum Solubility” value [1] was 800 µM.
With NHFVDEY [Ras 26-32] the IC50 (Ras-GAP interaction) was 350 µM and the “Maximum Solubility” value [1] was 800 µM.
With SALTIQLIQNHFV [Ras 17-29] the “IC50*” value (Ras-GAP interaction) was “no inhibition” and the “Maximum Solubility” value [1] was 20 µM.
In the case of TIQLIQNHFVDEY [Ras 20-32], the IC50 (Ras-GAP interaction) is reported as 18 µM and the “Maximum Solubility” value [1] is reported as 110 µM.
